A short description of data set [1]: in vivo. The note with it: female, athymic nude, mouse, in vivo, po. The text has this: (§1) The models evaluated included MV522, A549 and H460 NSCLC. […] The experiments used a tumor growth delay (TGD) endpoint based on median time to endpoint, i.e., tumor volume of 1000-2000 mm^3, and treatments were compared to untreated controls using the Logrank test for statistical significance.

Data set [2] deals with MV522 NSCLC. The experiment in a line: in vivo. The note with it: MV522.
Source text: as §1

Data set [3] is described as follows: Oral pharmacokinetics, all species examined. In kind it is in vivo. The note with it: orally administered; mice, rats, dogs, and monkeys. Here is the method: Peak plasma concentrations were achieved between 1 and 3 hours after a dose of 5 mg/kg. […] Oral availability was greatest in rodent, and was reduced in dogs and monkeys (59 and 34% respectively).
Data set [4] deals with H460 NSCLC. The experiment in a line: H460 NSCLC xenograft, tumor growth delay. In kind it is in vivo, female athymic nude mice.
Source text: as §1

In data set [5] the test system is A549 NSCLC. The experiment in a line: A549 NSCLC xenograft, tumor growth delay. In kind it is in vivo, female athymic nude mice.
Source text: as §1

The conditions of data set [6]: cited from earlier work.
For data set [7] the following is noted: patients taking erlotinib; cited from earlier work.

In data set [1], `CCOc1ccc(-c2cc(C)cn2-c2ccc(S(N)(=O)=O)cc2)cc1` registered an MTD of 30 mg/kg. The “Tumor growth delay (TGD)” value in data set [2] (10 mg/kg oral daily) worked out at 19.1 days; in data set [2] (30 mg/kg (MTD) oral daily), 32.1 days; in data set [4] (COX-2 inhibitor monotherapy), 4.0 days; in data set [5] (at its MTD, oral daily) it was 24.3 days. For the same compound, the “Tumor growth delay (TGD), percent” value in data set [2] (10 mg/kg oral daily) stood at 57%; in data set [2] (30 mg/kg (MTD) oral daily), 96%; in data set [4] (COX-2 inhibitor monotherapy) it was 30%; in data set [5] (at its MTD, oral daily), 62%. For the same compound, the “Absorption after oral administration” value in data set [3] is given as “rapidly absorbed”.
Take `CC(=O)O[C@@]12CO[C@@H]1C[C@H](O)[C@@]1(C)C(=O)[C@H](O)C3=C(C)[C@@H](OC(=O)[C@H](O)[C@@H](NC(=O)OC(C)(C)C)c4ccccc4)C[C@@](O)([C@@H](OC(=O)c4ccccc4)[C@H]21)C3(C)C` [Docetaxel]: the Solubility in water result in data set [6] is given as “practically insoluble”. Moreover, in data set [4] (25 mg/kg iv weekly x3), the “Tumor growth delay (TGD)” value came to 10.8 days and the “Tumor growth delay (TGD), percent” value turned out to be 80%.
Turning to `Cc1ccc(-c2cc(C(F)(F)F)nn2-c2ccc(S(N)(=O)=O)cc2)cc1` [celecoxib, reference compound], in data set [4] (COX-2 inhibitor monotherapy), the “Tumor growth delay (TGD)” value was 3.0 days and the “Tumor growth delay (TGD), percent” value worked out at 22%. In addition, in data set [5] (100 mg/kg), the “Tumor growth delay (TGD)” value is given as 15.4 days and the “Tumor growth delay (TGD), percent” value worked out at 39%.
For the compound `C#Cc1cccc(Nc2ncnc3cc(OCCOC)c(OCCOC)cc23)c1` [erlotinib, N-(3-ethynylphenyl)-6,7-bis(2-methoxyethoxy)quinazolin-4-amine], the “Patients with common side effects (rash, diarrhea, poor appetite, fatigue, shortness of breath, cough, nausea and vomiting)” value in data set [7] is given as “greater than 30 % of patients”.

The values are drawn from US20110301209A1, “METHODS AND COMPOSITIONS FOR THE TREATMENT OF CANCER, TUMORS, AND TUMOR-RELATED DISORDERS” (TRAGARA PHARMACEUTICALS, INC., priority 2007, published 2011).
